Our source for the AC50 values is ChEMBL document CHEMBL5291721, “A preclinical secondary pharmacology resource illuminates target-adverse drug reaction associations of marketed drugs” (Nat Commun, 2023).

Experiment [1] concerns the target Voltage-gated inwardly rectifying potassium channel KCNH2 (Homo sapiens, UniProt Q12809). It counts as functional.
Experiment [2] deals with T1, Muscarinic acetylcholine receptor M2 (Homo sapiens, UniProt P08172).
T1 sequence (P08172 whole entry): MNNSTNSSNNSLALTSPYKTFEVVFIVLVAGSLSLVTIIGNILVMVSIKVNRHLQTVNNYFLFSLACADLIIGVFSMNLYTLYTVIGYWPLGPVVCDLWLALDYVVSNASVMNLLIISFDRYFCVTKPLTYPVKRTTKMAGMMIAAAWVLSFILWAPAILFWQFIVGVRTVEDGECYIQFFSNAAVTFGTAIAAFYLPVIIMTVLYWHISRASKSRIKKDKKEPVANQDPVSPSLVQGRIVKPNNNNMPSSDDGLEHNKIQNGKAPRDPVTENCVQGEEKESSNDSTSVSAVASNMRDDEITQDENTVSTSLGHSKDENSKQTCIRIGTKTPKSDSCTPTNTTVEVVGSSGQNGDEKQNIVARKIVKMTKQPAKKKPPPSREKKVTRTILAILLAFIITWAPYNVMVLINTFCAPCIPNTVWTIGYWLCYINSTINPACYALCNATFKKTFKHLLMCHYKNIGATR
The experiment is classed as functional, cell-based.

Experiment [3] addresses 3',5'-cyclic-AMP phosphodiesterase 4A (Homo sapiens, UniProt P27815). It counts as functional.
The target of the next experiment is Prothrombin (Homo sapiens, UniProt P00734). It counts as functional.
In experiment [4] the target is cGMP-inhibited 3',5'-cyclic phosphodiesterase 3A (Homo sapiens, UniProt Q14432). It counts as functional.
Chain of cGMP-inhibited 3',5'-cyclic phosphodiesterase 3A (Q14432 whole entry): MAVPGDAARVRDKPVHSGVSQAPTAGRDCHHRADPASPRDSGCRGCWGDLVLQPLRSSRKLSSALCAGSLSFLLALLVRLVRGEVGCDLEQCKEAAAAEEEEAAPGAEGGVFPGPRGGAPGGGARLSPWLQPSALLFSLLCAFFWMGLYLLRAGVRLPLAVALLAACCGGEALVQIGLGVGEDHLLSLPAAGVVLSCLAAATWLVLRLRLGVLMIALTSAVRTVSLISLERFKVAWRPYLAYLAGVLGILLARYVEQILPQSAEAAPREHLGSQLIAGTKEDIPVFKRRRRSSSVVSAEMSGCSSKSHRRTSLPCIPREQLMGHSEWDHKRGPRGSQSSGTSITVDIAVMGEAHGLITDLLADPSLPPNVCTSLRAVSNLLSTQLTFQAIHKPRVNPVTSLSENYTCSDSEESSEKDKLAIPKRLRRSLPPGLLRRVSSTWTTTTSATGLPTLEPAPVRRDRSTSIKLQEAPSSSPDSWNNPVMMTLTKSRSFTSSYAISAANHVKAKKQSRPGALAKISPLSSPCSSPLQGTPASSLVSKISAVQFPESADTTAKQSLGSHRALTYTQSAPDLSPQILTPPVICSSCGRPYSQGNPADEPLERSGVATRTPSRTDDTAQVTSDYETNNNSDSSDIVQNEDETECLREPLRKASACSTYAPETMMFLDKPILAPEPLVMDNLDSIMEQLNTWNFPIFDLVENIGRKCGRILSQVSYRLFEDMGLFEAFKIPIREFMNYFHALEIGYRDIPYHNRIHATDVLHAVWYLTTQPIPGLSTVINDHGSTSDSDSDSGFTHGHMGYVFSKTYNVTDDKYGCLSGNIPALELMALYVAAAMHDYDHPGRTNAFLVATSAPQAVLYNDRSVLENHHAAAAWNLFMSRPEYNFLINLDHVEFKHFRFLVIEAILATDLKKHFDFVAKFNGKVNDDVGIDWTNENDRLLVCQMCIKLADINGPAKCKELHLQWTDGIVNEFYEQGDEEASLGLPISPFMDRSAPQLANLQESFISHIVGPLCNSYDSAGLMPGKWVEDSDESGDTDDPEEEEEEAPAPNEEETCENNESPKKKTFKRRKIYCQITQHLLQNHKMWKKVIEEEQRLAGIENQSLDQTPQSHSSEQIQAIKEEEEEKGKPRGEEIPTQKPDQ
For experiment [5], the target named is T2, 5-hydroxytryptamine receptor 1A (Homo sapiens, UniProt P08908).
T2 sequence (P08908 whole entry): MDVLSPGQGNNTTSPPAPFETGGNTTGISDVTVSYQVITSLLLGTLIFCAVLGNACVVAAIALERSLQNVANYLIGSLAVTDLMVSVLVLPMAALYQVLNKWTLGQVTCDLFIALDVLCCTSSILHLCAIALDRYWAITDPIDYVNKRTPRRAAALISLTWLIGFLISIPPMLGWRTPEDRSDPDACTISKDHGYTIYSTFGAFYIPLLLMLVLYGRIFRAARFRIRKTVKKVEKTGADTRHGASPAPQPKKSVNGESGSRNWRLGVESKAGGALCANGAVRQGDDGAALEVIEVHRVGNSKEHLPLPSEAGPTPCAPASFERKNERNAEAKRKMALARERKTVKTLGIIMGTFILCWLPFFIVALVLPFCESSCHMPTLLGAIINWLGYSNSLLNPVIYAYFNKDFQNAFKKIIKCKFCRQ

Experiment [6] deals with T3, Alpha-2A adrenergic receptor (Homo sapiens, UniProt P08913).
T3 sequence (P08913 whole entry): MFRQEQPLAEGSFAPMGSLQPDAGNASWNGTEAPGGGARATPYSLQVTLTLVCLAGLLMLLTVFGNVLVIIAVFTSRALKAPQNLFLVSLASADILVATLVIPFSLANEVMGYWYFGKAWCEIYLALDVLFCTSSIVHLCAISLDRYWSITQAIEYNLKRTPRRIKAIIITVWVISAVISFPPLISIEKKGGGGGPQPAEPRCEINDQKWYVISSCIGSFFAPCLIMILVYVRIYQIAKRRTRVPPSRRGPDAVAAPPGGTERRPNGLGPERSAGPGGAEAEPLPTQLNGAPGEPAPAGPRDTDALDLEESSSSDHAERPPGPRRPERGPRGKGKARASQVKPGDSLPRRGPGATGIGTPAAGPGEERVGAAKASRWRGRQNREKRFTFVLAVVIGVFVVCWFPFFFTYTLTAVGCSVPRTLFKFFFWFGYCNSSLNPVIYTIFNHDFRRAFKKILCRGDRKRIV

The next experiment addresses Histamine H3 receptor (Homo sapiens, UniProt Q9Y5N1).
Experiment [7] has as its target T4, Thromboxane A2 receptor (Homo sapiens, UniProt P21731).
T4 sequence (P21731 whole entry): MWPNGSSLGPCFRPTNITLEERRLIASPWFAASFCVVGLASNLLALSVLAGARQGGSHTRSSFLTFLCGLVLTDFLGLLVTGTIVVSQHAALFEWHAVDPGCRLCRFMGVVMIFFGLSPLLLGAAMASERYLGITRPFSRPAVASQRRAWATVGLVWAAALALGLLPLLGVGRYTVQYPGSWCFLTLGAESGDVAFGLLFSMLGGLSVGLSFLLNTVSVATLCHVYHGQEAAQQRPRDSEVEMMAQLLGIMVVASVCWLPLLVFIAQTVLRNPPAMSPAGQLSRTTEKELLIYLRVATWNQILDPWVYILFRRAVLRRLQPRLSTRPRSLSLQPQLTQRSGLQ
The experiment is classed as functional, cell-based.

The target in experiment [8] is T4, Thromboxane A2 receptor. The experiment is classed as functional, cell-based. This is another data set of the same source.
Experiment [9] deals with T5, Amine oxidase [flavin-containing] A (Homo sapiens, UniProt P21397).
T5 sequence (P21397 whole entry): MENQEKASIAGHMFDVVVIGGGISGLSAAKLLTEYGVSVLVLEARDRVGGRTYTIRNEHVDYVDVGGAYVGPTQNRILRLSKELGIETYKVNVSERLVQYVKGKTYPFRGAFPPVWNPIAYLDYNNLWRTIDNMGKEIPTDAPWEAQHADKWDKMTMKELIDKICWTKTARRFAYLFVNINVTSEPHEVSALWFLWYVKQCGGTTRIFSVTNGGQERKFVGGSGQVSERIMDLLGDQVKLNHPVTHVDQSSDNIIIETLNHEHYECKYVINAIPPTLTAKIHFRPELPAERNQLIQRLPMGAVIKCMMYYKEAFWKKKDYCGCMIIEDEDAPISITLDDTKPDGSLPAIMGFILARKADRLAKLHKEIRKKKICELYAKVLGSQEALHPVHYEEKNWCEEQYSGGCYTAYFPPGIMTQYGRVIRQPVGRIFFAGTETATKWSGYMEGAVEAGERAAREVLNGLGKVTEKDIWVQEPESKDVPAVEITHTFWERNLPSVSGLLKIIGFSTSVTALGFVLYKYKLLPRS
It counts as functional.

One may read the AC50 as the midpoint of the concentration-response curve, whichever way the signal moves. A higher AC50 goes with activity only at high concentration.
Further: assay procedure not described here.

Chain of Voltage-gated inwardly rectifying potassium channel KCNH2 (Q12809 whole entry): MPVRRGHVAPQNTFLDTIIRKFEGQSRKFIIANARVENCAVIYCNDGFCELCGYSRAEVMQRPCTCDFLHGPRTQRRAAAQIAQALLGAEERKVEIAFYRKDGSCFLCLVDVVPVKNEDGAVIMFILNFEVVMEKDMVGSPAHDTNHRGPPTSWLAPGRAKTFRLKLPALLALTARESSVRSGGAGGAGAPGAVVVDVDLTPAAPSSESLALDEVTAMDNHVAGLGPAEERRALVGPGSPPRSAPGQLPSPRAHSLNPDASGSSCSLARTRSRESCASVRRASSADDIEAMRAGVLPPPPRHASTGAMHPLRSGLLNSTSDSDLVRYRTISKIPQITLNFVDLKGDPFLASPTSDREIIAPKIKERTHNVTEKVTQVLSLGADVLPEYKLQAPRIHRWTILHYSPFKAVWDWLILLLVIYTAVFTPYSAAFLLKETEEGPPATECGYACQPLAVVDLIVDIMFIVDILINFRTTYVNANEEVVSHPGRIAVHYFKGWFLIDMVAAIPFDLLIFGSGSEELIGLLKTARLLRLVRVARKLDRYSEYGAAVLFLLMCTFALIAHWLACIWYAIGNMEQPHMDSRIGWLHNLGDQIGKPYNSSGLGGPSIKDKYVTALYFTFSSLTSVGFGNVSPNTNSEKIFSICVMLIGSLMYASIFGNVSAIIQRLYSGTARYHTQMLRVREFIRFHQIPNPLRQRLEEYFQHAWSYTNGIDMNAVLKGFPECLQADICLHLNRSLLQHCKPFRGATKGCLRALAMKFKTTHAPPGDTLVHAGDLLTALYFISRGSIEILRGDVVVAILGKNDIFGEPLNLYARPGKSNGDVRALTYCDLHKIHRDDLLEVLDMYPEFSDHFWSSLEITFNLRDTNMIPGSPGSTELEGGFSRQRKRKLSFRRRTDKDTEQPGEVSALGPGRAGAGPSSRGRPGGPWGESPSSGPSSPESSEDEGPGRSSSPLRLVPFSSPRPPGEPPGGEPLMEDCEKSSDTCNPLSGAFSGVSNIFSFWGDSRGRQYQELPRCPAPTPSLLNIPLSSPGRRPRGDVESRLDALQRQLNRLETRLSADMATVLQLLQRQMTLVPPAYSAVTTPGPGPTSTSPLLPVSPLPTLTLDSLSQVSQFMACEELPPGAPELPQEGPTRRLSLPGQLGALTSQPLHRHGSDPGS
Chain of 3',5'-cyclic-AMP phosphodiesterase 4A (P27815 whole entry): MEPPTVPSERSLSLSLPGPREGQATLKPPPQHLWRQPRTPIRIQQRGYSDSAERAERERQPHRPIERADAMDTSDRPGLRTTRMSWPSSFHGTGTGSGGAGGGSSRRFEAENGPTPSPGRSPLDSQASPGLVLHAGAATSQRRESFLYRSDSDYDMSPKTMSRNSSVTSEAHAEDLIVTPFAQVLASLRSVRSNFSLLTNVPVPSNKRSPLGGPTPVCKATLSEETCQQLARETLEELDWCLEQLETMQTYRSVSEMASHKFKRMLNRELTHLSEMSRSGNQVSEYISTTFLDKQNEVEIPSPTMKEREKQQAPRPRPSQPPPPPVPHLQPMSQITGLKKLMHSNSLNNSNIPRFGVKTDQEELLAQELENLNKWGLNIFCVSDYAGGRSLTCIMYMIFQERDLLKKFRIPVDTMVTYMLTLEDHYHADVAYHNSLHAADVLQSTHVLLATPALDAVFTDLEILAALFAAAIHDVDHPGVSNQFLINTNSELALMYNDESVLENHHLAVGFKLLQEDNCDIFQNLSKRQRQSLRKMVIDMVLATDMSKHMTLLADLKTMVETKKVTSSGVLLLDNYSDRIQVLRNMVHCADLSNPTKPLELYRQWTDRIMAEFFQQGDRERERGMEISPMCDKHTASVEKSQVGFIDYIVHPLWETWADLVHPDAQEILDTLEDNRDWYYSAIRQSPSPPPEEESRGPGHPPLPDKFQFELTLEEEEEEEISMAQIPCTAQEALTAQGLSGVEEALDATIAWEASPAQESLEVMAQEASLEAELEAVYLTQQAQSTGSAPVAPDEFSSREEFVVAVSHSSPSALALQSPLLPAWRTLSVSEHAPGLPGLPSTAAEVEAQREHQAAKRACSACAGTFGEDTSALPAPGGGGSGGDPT
Chain of Histamine H3 receptor (Q9Y5N1 whole entry): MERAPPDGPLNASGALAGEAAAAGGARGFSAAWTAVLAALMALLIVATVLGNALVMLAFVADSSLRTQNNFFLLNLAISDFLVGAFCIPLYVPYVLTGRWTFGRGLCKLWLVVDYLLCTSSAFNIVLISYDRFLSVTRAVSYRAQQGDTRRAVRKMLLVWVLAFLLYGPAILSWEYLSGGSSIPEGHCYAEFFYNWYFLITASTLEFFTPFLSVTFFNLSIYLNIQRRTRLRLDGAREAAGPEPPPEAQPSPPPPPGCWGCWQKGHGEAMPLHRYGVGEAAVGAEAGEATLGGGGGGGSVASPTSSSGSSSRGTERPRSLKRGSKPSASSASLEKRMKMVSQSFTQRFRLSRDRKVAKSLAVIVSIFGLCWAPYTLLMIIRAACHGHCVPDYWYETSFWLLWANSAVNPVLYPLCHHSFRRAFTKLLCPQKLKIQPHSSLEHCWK

Consider `C[N+]1(C)CCC(=C(c2ccccc2)c2ccccc2)CC1`, for which, in experiment [1], half-maximal activity (AC50) was put at 0.187 µM.

With `C[N+](C)(C)CCOP(=O)([O-])OC[C@H](O)CO`, the AC50 in experiment [1] and in experiment [2] was more than 30 µM throughout.

Take `CN(C)Cc1nnc2n1-c1ccc(Cl)cc1C(c1ccccc1)=NC2` [ADINAZOLAM]: the AC50 was more than 30 µM in experiment [1] and more than 10 µM in experiment [2].

As for `CN(C)C/C=C/C(=O)Nc1cc2c(Nc3ccc(F)c(Cl)c3)ncnc2cc1O[C@H]1CCOC1` [AFATINIB], the concentration at half-maximal activity (AC50) in [2] came to 23 µM.

For `Cc1ccccc1-n1c(CF)nc2ccc(N)cc2c1=O` [AFLOQUALONE], the concentration at half-maximal activity (AC50) in [1] was more than 30 µM; in experiment [2], more than 10 µM.

Turning to `CCC1(c2ccc(N)cc2)CCC(=O)NC1=O` (stereo not given) [AMINOGLUTETHIMIDE], the AC50 in [1] and in experiment [2] was more than 30 µM in each case.

In the case of `CC1=C(C(=O)OC(C)C)C(c2cccc([N+](=O)[O-])c2)C(C(=O)OC2CN(C(c3ccccc3)c3ccccc3)C2)=C(N)N1` (stereo not given) [AZELNIDIPINE], the AC50 in experiment [1] and in experiment [2] was more than 30 µM throughout.

Consider `CC(Cc1cccc(C(F)(F)F)c1)NCCOC(=O)c1ccccc1` (stereo not given) [BENFLUOREX], for which the AC50 was 5.6 µM in experiment [1] and more than 30 µM in experiment [2].

As for `CCOC(=O)c1ccc(N)cc1` [BENZOCAINE], the values for the concentration at half-maximal activity (AC50) in experiment [1] and in [2] were more than 30 µM and more than 10 µM, respectively.

In the case of `CC(C)(Oc1ccc(CCNC(=O)c2ccc(Cl)cc2)cc1)C(=O)O` [BEZAFIBRATE], the values for the AC50 in experiment [1] and in experiment [2] were more than 30 µM and more than 10 µM, respectively.

On to `O=C(O)COCCN1CCN(C(c2ccccc2)c2ccc(Cl)cc2)CC1` (stereo not given) [CETIRIZINE], for which the concentration at half-maximal activity (AC50) (in experiment [3]; at Prothrombin; in experiment [4]; in experiment [5]; in experiment [6]; on Histamine H3 receptor) was more than 30 µM in each case. Also, the AC50 (at Thromboxane A2 receptor [7]; at Thromboxane A2 receptor [8]; in experiment [9]) was more than 30 µM in each case.

With `C/C=C(/C(=C/C)c1ccc(O)cc1)c1ccc(O)cc1` [DIENESTROL], the AC50 in [1] is more than 30 µM; in [2] it was more than 10 µM.

As to `CN[C@]1(c2ccccc2Cl)CCCCC1=O` [ESKETAMINE], the AC50 in [1] and in [2] was more than 30 µM throughout.

Turning to `COc1ccc([C@@H]2CC(=O)c3c(O)cc(O)cc3O2)cc1O` [HESPERETIN], the concentration at half-maximal activity (AC50) is more than 30 µM in experiment [1] and more than 10 µM in [2].

As for `CNCCc1ccc(OC(=O)C(C)C)c(OC(=O)C(C)C)c1` [IBOPAMINE], the AC50 in [1] and in [2] was more than 30 µM in each case.

With `CN(C)CCCN1c2ccccc2CCc2ccccc21` [IMIPRAMINE], the activity in experiment [2] was half-maximal at 4.3 µM (AC50).

With `CCOC(=O)C1=C(C)NC(C)=C(C(=O)OCC)C1c1ccccc1/C=C/C(=O)OC(C)(C)C` [LACIDIPINE], the AC50 in experiment [1] is 17.8 µM; in experiment [2], more than 30 µM.

In the case of `CCC[C@@H]1C[C@@H](C(=O)N[C@@H]([C@H]2O[C@H](SC)[C@H](O)[C@@H](O)[C@H]2O)[C@@H](C)O)N(C)C1` [LINCOMYCIN], the figures for the AC50 in experiment [1] and in experiment [2] were more than 30 µM and more than 10 µM, respectively.

As to `COC(=O)C1=C(C)NC(C)=C(C(=O)OCCN2CCN(C(c3ccccc3)c3ccccc3)CC2)C1c1cccc([N+](=O)[O-])c1` (stereo not given) [MANIDIPINE 6300], the concentration at half-maximal activity (AC50) in [1] is 0.82 µM; in experiment [2], more than 30 µM.

As for `C=C1c2cccc(O)c2C(=O)C2=C(O)[C@]3(O)C(=O)C(C(N)=O)=C(O)[C@@H](N(C)C)[C@@H]3[C@@H](O)[C@H]12` [METHACYCLINE], the values for the concentration at half-maximal activity (AC50) in [1] and in experiment [2] were more than 30 µM and more than 10 µM, respectively.

For `CN(Cc1cnc2nc(N)nc(N)c2n1)c1ccc(C(=O)N[C@@H](CCC(=O)O)C(=O)O)cc1` [METHOTREXATE], the AC50 in [1] is more than 30 µM; in [2], more than 10 µM.

For the compound `Cc1ccccc1N1C(=O)c2cc(S(N)(=O)=O)c(Cl)cc2NC1C` (stereo not given) [METOLAZONE], the AC50 was more than 30 µM in experiment [1] and more than 10 µM in experiment [2].

Turning to `O=C(O)c1cccnc1Nc1cccc(C(F)(F)F)c1` [NIFLUMIC ACID], the values for the AC50 in experiment [1] and in experiment [2] were more than 30 µM and more than 10 µM, respectively.

`O=C1c2cccc3c2[C@H](CCC3)CN1[C@@H]1CN2CCC1CC2` [PALONOSETRON]: the AC50 in experiment [1] was 0.89 µM; in [2], more than 30 µM.

Consider `OC[C@H]1O[C@@H](n2cnc3c2NC=NC[C@H]3O)C[C@@H]1O` [PENTOSTATIN], for which the AC50 in experiment [1] and in [2] was more than 30 µM in each case.

Turning to `O=C1c2ccccc2C(=O)C1c1ccccc1` [PHENINDIONE], the half-maximal activity concentration (AC50) in experiment [1] was more than 30 µM; in [2], more than 10 µM.

As to `Cc1cccc(C)c1NC(=O)CC12CCCN1CCC2` [PILSICAINIDE], in experiment [2], the AC50 was more than 30 µM.

Regarding `CC(C)c1cccc(C(C)C)c1O` [PROPOFOL], the AC50 in experiment [2] was more than 30 µM.

For `CN[C@@H](C)[C@@H](O)c1ccccc1` [PSEUDOEPHEDRINE], the values for the AC50 in [1] and in [2] were more than 30 µM and more than 10 µM, respectively.

In the case of `CCCN1CC(NS(=O)(=O)N(CC)CC)CC2Cc3c(O)cccc3CC21` (stereo not given) [QUINAGOLIDE], the AC50 in [1] is 6.5 µM; in experiment [2], more than 30 µM.

As for `C[C@]12CCC(=O)C[C@@H]1CC[C@@H]1[C@@H]2CC[C@]2(C)[C@@H](O)CC[C@@H]12` [STANOLONE], the AC50 in [1] and in experiment [2] was more than 30 µM in each case.

With `O=C1OC(OC(=O)c2cccnc2Nc2cccc(C(F)(F)F)c2)c2ccccc21` (stereo not given) [TALNIFLUMATE], the concentration at half-maximal activity (AC50) in experiment [1] and in experiment [2] was more than 30 µM throughout.

As to `C[C@]12C=CC(=O)C=C1CC[C@@H]1[C@@H]2CC[C@]2(C)OC(=O)CC[C@@H]12` [TESTOLACTONE], the half-maximal activity concentration (AC50) is more than 30 µM in [1] and more than 10 µM in [2].

Turning to `CCOC(=O)c1c(CSc2ccccc2)n(C)c2cc(Br)c(O)c(CN(C)C)c12` [UMIFENOVIR], the concentration at half-maximal activity (AC50) in experiment [1] worked out at 0.61 µM; in experiment [2], 28 µM.
